Reference: patent publication US12527788B2, “Defining RNA-small molecule affinity landscapes enables design of a small molecule inhibitor of an oncogenic non-coding RNA” (University of Florida Research Foundation, Incorporated, priority 2017, dated 2026)

How the values were obtained:
Assay in all cases: RT-qPCR of mature miRNA levels in DU145 cells
Type in all cases: cell-based, human
miR-19b = system: miR-19b
Description: (§1) In particular, the mature levels of each miRNA in the cluster were studied by RT-qPCR. In agreement with our in vitro Dicer processing studies (FIG. 8A and Figures S-58-S-62), 4 decreases the amount of mature miR-17, -18a, and -20a at low micromolar concentrations with an IC50 of ˜10 µM, but has no effect on miR-19a, -19b, and -92a (FIG. 8B).
(§2) Cell Culture: DU145 cells were cultured in growth medium (Roswell Park Memorial Institute medium (RPMI) supplemented with 10% fetal bovine serum (FBS)) at 37° C. and 5% CO2
(§3) Total RNA was extracted from cells using a Quick-RNA Miniprep Kit (Zymo Research) per the manufacturer's protocol. Approximately 200 ng of total RNA was used in reverse transcription (RT) reactions, which were completed using a miScript II RT kit (Qiagen) per the manufacturer's protocol. RT-qPCR was performed on a 7900HT Fast Real Time PCR System (Applied Biosystem) using power SYBR Green Master Mix (Applied Biosystems). All primer sets were purchased from Integrated DNA Technologies, Inc. (IDT) or Eurofins (Table S1). The expression levels of mature miRNAs were normalized to U6 small nuclear RNA or 18s rRNA.

miR-92a = system: miR-92a
Description: as §1, §2, §3

miR-19a = system: miR-19a
Description: as §1, §2, §3

Measured: Effect on mature miRNA level

CN1CCN(c2ccc(-c3ccc4nc(-c5cc(C(C)(C)C)c(OCCCC(=O)NCCCN=[N+]=[N-])c(C(C)(C)C)c5)[nH]c4c3)cc2)CC1 [Compound 4]
no effect: all assays above
